{"source": "PubChem BioAssay AID1963825", "about": "(Molecular Pharmacology Branch, DTP, NCI, 2024);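 note: luminescence signal used as a surrogate for viable cells; spheroids exposed to drugs for seven days before readout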", "data": [{"assay": "Anticancer human tumor 997537-175-T-J1-PDC patient-derived colon adenocarcinoma cell line growth inhibition [POLQ]", "conditions": "997537-175-T-J1-PDC complex spheroid viability, combination with POLQ inhibitors; second compound 0.0316 µM; first compound 3.16 µM; active compounds read low", "summary_of_the_method": "(§1)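 PDC + HUVEC + MSC complex spheroids; POLQ inhibitors ± partner drugs; top conc. at/near clinical Cmax, else 10 microM (SN-38 1 microM), half-log dilutions; 37 degrees C, 5% CO2.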", "units": {"viability, T/C": "%"}, "values": [{"smiles": "CC1COCCN1c1cc(C2(S(C)(=N)=O)CC2)nc(-c2ccnc3[nH]ccc23)n1", "note": "(stereo unspecified) + Nc1ccc(C#CCN(C(=O)Cc2ncc(C(F)(F)F)cc2C(F)(F)F)c2ccc(F)cc2)nn1", "viability, T/C": 87.1}, {"smiles": "CCCS(=O)(=O)Nc1ccc(F)c(C(=O)c2c[nH]c3ncc(-c4ccc(Cl)cc4)cc23)c1F", "note": "+ Cc1cccc(N(C)C(=O)C2C(O)CCN2c2nc(C)cc(C(F)(F)F)c2C#N)c1", "viability, T/C": 70.5}, {"smiles": "CCc1cc2c(N3CCc4c(cc(Cn5ccnc5)cc4-c4cn(C)nc4C(F)(F)F)C3=O)ccnc2c(OC)n1", "note": "+ Cc1cccc(N(C)C(=O)C2C(O)CCN2c2nc(C)cc(C(F)(F)F)c2C#N)c1", "viability, T/C": 90.6}]}, {"assay": "Anticancer human tumor 997537-175-T-J1-PDC cell line growth inhibition [POLQ]", "conditions": "997537-175-T-J1-PDC complex spheroid viability, combination with POLQ inhibitors; second compound 0.0316 µM; first compound 10 µM; active compounds read low", "summary_of_the_method": "as §1", "units": {"viability, T/C": "%"}, "values": [{"smiles": "Nc1ccn(C2OC(CO)C(O)C2(F)F)c(=O)n1", "note": "(stereo unspecified) + Cc1cccc(N(C)C(=O)C2C(O)CCN2c2nc(C)cc(C(F)(F)F)c2C#N)c1", "viability, T/C": 77}, {"smiles": "CC1COCCN1c1cc(-c2ccnn2C)c2ccnc(-c3ccn[nH]3)c2n1", "note": "(stereo unspecified) + COC1C(OC(N)=O)C(O)C(Oc2ccc3c(O)c(NC(=O)c4ccc(O)c(CC=C(C)C)c4)c(=O)oc3c2C)OC1(C)C", "viability, T/C": 51.3}, {"smiles": "CC1COCCN1c1cc(C2(S(C)(=N)=O)CC2)nc(-c2ccnc3[nH]ccc23)n1", "note": "(stereo unspecified) + Nc1ccc(C#CCN(C(=O)Cc2ncc(C(F)(F)F)cc2C(F)(F)F)c2ccc(F)cc2)nn1", "viability, T/C": 57.2}, {"smiles": "CCCS(=O)(=O)Nc1ccc(F)c(C(=O)c2c[nH]c3ncc(-c4ccc(Cl)cc4)cc23)c1F", "note": "+ Cc1cccc(N(C)C(=O)C2C(O)CCN2c2nc(C)cc(C(F)(F)F)c2C#N)c1", "viability, T/C": 22.8}, {"smiles": "CCc1cc2c(N3CCc4c(cc(Cn5ccnc5)cc4-c4cn(C)nc4C(F)(F)F)C3=O)ccnc2c(OC)n1", "note": "+ Cc1cccc(N(C)C(=O)C2C(O)CCN2c2nc(C)cc(C(F)(F)F)c2C#N)c1", "viability, T/C": 73.4}]}, {"assay": "Anticancer human tumor 997537-175-T-J1-PDC cell line growth inhibition [POLQ]", "conditions": "997537-175-T-J1-PDC complex spheroid viability, combination with POLQ inhibitors; second compound 0.1 µM; first compound 0.0316 µM; active compounds read low", "summary_of_the_method": "as §1", "units": {"viability, T/C": "%"}, "values": [{"smiles": "Nc1ccn(C2OC(CO)C(O)C2(F)F)c(=O)n1", "note": "(stereo unspecified) + Cc1cccc(N(C)C(=O)C2C(O)CCN2c2nc(C)cc(C(F)(F)F)c2C#N)c1", "viability, T/C": 106}, {"smiles": "CC1COCCN1c1cc(-c2ccnn2C)c2ccnc(-c3ccn[nH]3)c2n1", "note": "(stereo unspecified) + COC1C(OC(N)=O)C(O)C(Oc2ccc3c(O)c(NC(=O)c4ccc(O)c(CC=C(C)C)c4)c(=O)oc3c2C)OC1(C)C", "viability, T/C": 83.3}, {"smiles": "CC1COCCN1c1cc(C2(S(C)(=N)=O)CC2)nc(-c2ccnc3[nH]ccc23)n1", "note": "(stereo unspecified) + Nc1ccc(C#CCN(C(=O)Cc2ncc(C(F)(F)F)cc2C(F)(F)F)c2ccc(F)cc2)nn1", "viability, T/C": 105}, {"smiles": "CCCS(=O)(=O)Nc1ccc(F)c(C(=O)c2c[nH]c3ncc(-c4ccc(Cl)cc4)cc23)c1F", "note": "+ Cc1cccc(N(C)C(=O)C2C(O)CCN2c2nc(C)cc(C(F)(F)F)c2C#N)c1", "viability, T/C": 105}, {"smiles": "CCc1cc2c(N3CCc4c(cc(Cn5ccnc5)cc4-c4cn(C)nc4C(F)(F)F)C3=O)ccnc2c(OC)n1", "note": "+ Cc1cccc(N(C)C(=O)C2C(O)CCN2c2nc(C)cc(C(F)(F)F)c2C#N)c1", "viability, T/C": 110}]}, {"assay": "Anticancer human tumor 997537-175-T-J1-PDC cell line growth inhibition [POLQ]", "conditions": "997537-175-T-J1-PDC complex spheroid viability, combination with POLQ inhibitors; second compound 0.1 µM; first compound 0.1 µM; active compounds read low", "summary_of_the_method": "as §1", "units": {"viability, T/C": "%"}, "values": [{"smiles": "Nc1ccn(C2OC(CO)C(O)C2(F)F)c(=O)n1", "note": "(stereo unspecified) + Cc1cccc(N(C)C(=O)C2C(O)CCN2c2nc(C)cc(C(F)(F)F)c2C#N)c1", "viability, T/C": 91.5}, {"smiles": "CC1COCCN1c1cc(-c2ccnn2C)c2ccnc(-c3ccn[nH]3)c2n1", "note": "(stereo unspecified) + COC1C(OC(N)=O)C(O)C(Oc2ccc3c(O)c(NC(=O)c4ccc(O)c(CC=C(C)C)c4)c(=O)oc3c2C)OC1(C)C", "viability, T/C": 81.5}, {"smiles": "CC1COCCN1c1cc(C2(S(C)(=N)=O)CC2)nc(-c2ccnc3[nH]ccc23)n1", "note": "(stereo unspecified) + Nc1ccc(C#CCN(C(=O)Cc2ncc(C(F)(F)F)cc2C(F)(F)F)c2ccc(F)cc2)nn1", "viability, T/C": 105}, {"smiles": "CCCS(=O)(=O)Nc1ccc(F)c(C(=O)c2c[nH]c3ncc(-c4ccc(Cl)cc4)cc23)c1F", "note": "+ Cc1cccc(N(C)C(=O)C2C(O)CCN2c2nc(C)cc(C(F)(F)F)c2C#N)c1", "viability, T/C": 91.7}, {"smiles": "CCc1cc2c(N3CCc4c(cc(Cn5ccnc5)cc4-c4cn(C)nc4C(F)(F)F)C3=O)ccnc2c(OC)n1", "note": "+ Cc1cccc(N(C)C(=O)C2C(O)CCN2c2nc(C)cc(C(F)(F)F)c2C#N)c1", "viability, T/C": 110}]}, {"assay": "Anticancer human tumor 997537-175-T-J1-PDC cell line growth inhibition [POLQ]", "conditions": "997537-175-T-J1-PDC complex spheroid viability, combination with POLQ inhibitors; second compound 0.1 µM; first compound 0.316 µM; active compounds read low", "summary_of_the_method": "as §1", "units": {"viability, T/C": "%"}, "values": [{"smiles": "Nc1ccn(C2OC(CO)C(O)C2(F)F)c(=O)n1", "note": "(stereo unspecified) + Cc1cccc(N(C)C(=O)C2C(O)CCN2c2nc(C)cc(C(F)(F)F)c2C#N)c1", "viability, T/C": 85.1}, {"smiles": "CC1COCCN1c1cc(-c2ccnn2C)c2ccnc(-c3ccn[nH]3)c2n1", "note": "(stereo unspecified) + COC1C(OC(N)=O)C(O)C(Oc2ccc3c(O)c(NC(=O)c4ccc(O)c(CC=C(C)C)c4)c(=O)oc3c2C)OC1(C)C", "viability, T/C": 64.1}, {"smiles": "CC1COCCN1c1cc(C2(S(C)(=N)=O)CC2)nc(-c2ccnc3[nH]ccc23)n1", "note": "(stereo unspecified) + Nc1ccc(C#CCN(C(=O)Cc2ncc(C(F)(F)F)cc2C(F)(F)F)c2ccc(F)cc2)nn1", "viability, T/C": 81.3}, {"smiles": "CCCS(=O)(=O)Nc1ccc(F)c(C(=O)c2c[nH]c3ncc(-c4ccc(Cl)cc4)cc23)c1F", "note": "+ Cc1cccc(N(C)C(=O)C2C(O)CCN2c2nc(C)cc(C(F)(F)F)c2C#N)c1", "viability, T/C": 82.4}, {"smiles": "CCc1cc2c(N3CCc4c(cc(Cn5ccnc5)cc4-c4cn(C)nc4C(F)(F)F)C3=O)ccnc2c(OC)n1", "note": "+ Cc1cccc(N(C)C(=O)C2C(O)CCN2c2nc(C)cc(C(F)(F)F)c2C#N)c1", "viability, T/C": 94.8}]}, {"assay": "Anticancer human tumor 997537-175-T-J1-PDC cell line growth inhibition [POLQ]", "conditions": "997537-175-T-J1-PDC complex spheroid viability, combination with POLQ inhibitors; second compound 0.1 µM; first compound 1 µM; active compounds read low", "summary_of_the_method": "as §1", "units": {"viability, T/C": "%"}, "values": [{"smiles": "Nc1ccn(C2OC(CO)C(O)C2(F)F)c(=O)n1", "note": "(stereo unspecified) + Cc1cccc(N(C)C(=O)C2C(O)CCN2c2nc(C)cc(C(F)(F)F)c2C#N)c1", "viability, T/C": 67.1}, {"smiles": "CC1COCCN1c1cc(-c2ccnn2C)c2ccnc(-c3ccn[nH]3)c2n1", "note": "(stereo unspecified) + COC1C(OC(N)=O)C(O)C(Oc2ccc3c(O)c(NC(=O)c4ccc(O)c(CC=C(C)C)c4)c(=O)oc3c2C)OC1(C)C", "viability, T/C": 42.5}, {"smiles": "CC1COCCN1c1cc(C2(S(C)(=N)=O)CC2)nc(-c2ccnc3[nH]ccc23)n1", "note": "(stereo unspecified) + Nc1ccc(C#CCN(C(=O)Cc2ncc(C(F)(F)F)cc2C(F)(F)F)c2ccc(F)cc2)nn1", "viability, T/C": 95.4}]}]}
